# Test results published in patent publication US9169254B2, “Spiroimidazolone derivative” (Chugai Seiyaku Kabushiki Kaisha, priority 2009, dated 2015).
# Target: T1, human PTH1 receptor (Homo sapiens, UniProt Q03431)
# T1 sequence (Q03431 27-593): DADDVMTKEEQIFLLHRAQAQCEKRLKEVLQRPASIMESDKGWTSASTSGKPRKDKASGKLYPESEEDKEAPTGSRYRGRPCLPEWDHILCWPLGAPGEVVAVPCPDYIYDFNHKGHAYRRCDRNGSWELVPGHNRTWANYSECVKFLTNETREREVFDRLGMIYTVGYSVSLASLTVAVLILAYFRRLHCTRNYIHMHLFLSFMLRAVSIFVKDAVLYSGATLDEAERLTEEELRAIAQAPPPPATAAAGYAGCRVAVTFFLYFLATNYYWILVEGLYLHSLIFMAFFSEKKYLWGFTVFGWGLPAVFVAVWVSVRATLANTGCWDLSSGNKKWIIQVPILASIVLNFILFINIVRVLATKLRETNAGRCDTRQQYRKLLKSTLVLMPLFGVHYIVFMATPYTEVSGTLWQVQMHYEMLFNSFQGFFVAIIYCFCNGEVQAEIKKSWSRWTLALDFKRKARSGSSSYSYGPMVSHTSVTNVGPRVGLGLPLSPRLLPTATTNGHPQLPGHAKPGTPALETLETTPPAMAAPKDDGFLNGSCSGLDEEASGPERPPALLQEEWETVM
# Experiment: In vitro cAMP signal activity in HKRK-B7 cells (LLC-PK1 cells overexpressing the human PTH1 receptor)
# Assay type: cell-based
# Details: HKRK-B7 cells; compound at 1×10^−3 M; cAMP produced as percentage of that produced by hPTH(1-34) at 100 nM
row,Compound,cAMP production activity (%)
1,"Cc1cc(NC(=O)[C@@H](N)CO)ccc1/C=C/S(=O)(=O)N1CCC2(CC1)N=C(c1cccc(C(F)(F)F)c1)NC2=O [Compound 688, (S)-2-Amino-3-hydroxy-N-(3-methyl-4-{(E)-2-[4-oxo-2-(3-trifluoromethyl-phenyl)-1,3,8-triaza-spiro[4.5]dec-1-ene-8-sulfonyl]-vinyl}-phenyl)-propionamide]",55
2,"CC(=O)Nc1ccc(CCS(=O)(=O)N2CCC3(CC2)N=C([C@H]2CC[C@H](CC(F)(F)F)CC2)NC3=O)c(C)c1 [Compound 922, N-[3-methyl-4-(2-{4-oxo-2-[4-(2,2,2-trifluoro-ethyl)-cyclohexyl]-1,3,8-triaza-spiro[4.5]dec-1-ene-8-sulfonyl}-ethyl)-phenyl]-acetamide]",84
3,"Cc1cc(C(=O)N(C)C)ccc1CCS(=O)(=O)N1CCC2(CC1)N=C(c1cccc(C(F)(F)F)c1F)NC2=O [Compound 116, 4-{2-[2-(2-fluoro-3-trifluoromethyl-phenyl)-4-oxo-1,3,8-triaza-spiro[4.5]dec-1-ene-8-sulfonyl]-ethyl}-3,N,N-trimethyl-benzamide]",94
4,"Cc1cc(N(C)C(N)=O)cc(C)c1/C=C/[S@TB3](=O)(=O)N1CCC2(CC1)N=C(c1ccc(Cl)c(C(F)(F)F)c1)NC2=O [Compound 1113, 1-(4-{(E)-2-[2-(4-chloro-3-trifluoromethyl-phenyl)-4-oxo-1,3,8-triaza-spiro[4.5]dec-1-ene-8-sulfonyl]-vinyl}-3,5-dimethyl-phenyl)-1-methyl-urea]",99
5,"[2H]C([2H])([2H])C([2H])(Oc1ccc(C2=NC3(CCN(S(=O)(=O)/C=C/c4c(C)cc(C(=O)N5CCC(C)(O)CC5)cc4C)CC3)C(=O)N2)cc1C(F)(F)F)C([2H])([2H])[2H] [Compound 1222, 8-{(E)-2-[4-(4-hydroxy-4-methyl-piperidine-1-carbonyl)-2,6-dimethyl-phenyl]-ethenesulfonyl}-2-(4-[1,2,2,2,2,2,2-^2H7]isopropoxy-3-trifluoromethyl-phenyl)-1,3,8-triaza-spiro[4.5]dec-1-en-4-one]",77
6,"Cc1cc(N(C)C(N)=O)cc(C)c1CCS(=O)(=O)N1CCC2(CC1)N=C(CCCCCCCCCCC1(C)COC1)NC2=O [Compound 1032, 1-[3,5-dimethyl-4-(2-{2-[10-(3-methyl-oxetan-3-yl)-decyl]-4-oxo-1,3,8-triaza-spiro[4.5]dec-1-ene-8-sulfonyl}-ethyl)-phenyl]-1-methyl-urea]",88
7,Cc1cc2ccc1CCS(=O)(=O)N1CCC3(CC1)N=C(NC3=O)c1ccc(C(F)(F)F)c(c1)OCCCC=COCCN(C)C2=O [Compound 1431],15
8,"O=C1NC(C2CCC(CCC(F)(F)F)CC2)=NC12CCN(S(=O)(=O)CCc1cccc3c1ccn3CCOC[C@@H](O)CO)CC2 (stereo partly drawn) [Compound 822, 8-(2-{1-[2-((S)-2,3-dihydroxy-propoxy)-ethyl]-1H-indol-4-yl}-ethanesulfonyl)-2-[4-(3,3,3-trifluoro-propyl)-cyclohexyl]-1,3,8-triaza-spiro[4.5]dec-1-en-4-one]",99
9,"Cc1cc(C(=O)N2CCN(C(=O)CO)CC2)cc(C)c1/C=C/S(=O)(=O)N1CCC2(CC1)N=C(c1cccc(OC(F)(F)F)c1)NC2=O [Compound 447, 8-((E)-2-{4-[4-(2-Hydroxy-acetyl)-piperazine-1-carbonyl]-2,6-dimethyl-phenyl}-ethenesulfonyl)-2-(3-trifluoromethoxy-phenyl)-1,3,8-triaza-spiro[4.5]dec-1-en-4-one]",89
10,"Cc1cc(C(=O)N(C)C)ccc1CCS(=O)(=O)N1CCC2(CC1)N=C(C(C)(C)C)NC2=O [Compound 74, 4-[2-(2-tert-butyl-4-oxo-1,3,8-triaza-spiro[4.5]dec-1-ene-8-sulfonyl)-ethyl]-3,N,N-trimethyl-benzamide]",48
